Here are results for one molecule from publication PMC5702897 (CPT: Pharmacometrics & Systems Pharmacology, 2017).

The conditions of data set [1]: 40 mg single dose, healthy volunteers, cited from earlier work.
The conditions of data set [2]: weakly basic compound; cited from earlier work.
For data set [3] the following is noted: 15 to 450 mg given in fasted state; cited from earlier work.

Each structure is given as a SMILES string. Where two headings read alike, the source gives them in different places.

On to `CS(=O)(=O)N1CCN(Cc2cc3nc(-c4cccc5[nH]ncc45)nc(N4CCOCC4)c3s2)CC1` [pictilisib, Pictilisib], for which the “Absorption rate constant (Ka), typical value” was 2.63 h⁻¹ (PPI=0, Fasted); 0.297 h⁻¹ (PPI=0, Fed); 1.361 h⁻¹ (PPI=1, Fasted); 0.154 h⁻¹ (PPI=1, Fed). Moreover, under “both PPI and food present”, the “Ka as percent of the fasted state value” is “about 6%”. Also, the “Absorption lag time (Tlag), typical value” (healthy volunteers, 40 mg) was determined as 0.47 H. Moreover, for the setting “healthy volunteers, 40 mg”, the “Central volume (Vc/F), typical value” is given as 304.9 L. The “Peripheral volume (Vp/F), typical value” (healthy volunteers, 40 mg) is recorded as 175.9 L. Besides, where the note is “human, in vivo”, the “BSV of absorption lag time (Tlag)” value turned out to be 3.00%. Moreover, the “BSV of central volume (Vc/F)” value (human, in vivo) amounted to 37.7%. Also, the “BSV of absorption rate constant (Ka)” value (one value for all four states) amounted to 51.9%. Also, the “decrease in Ka with PPI” value (regardless of food) is recorded as roughly 50%. The “median AUCinf” value in data set [1] (fasted with PPI (rabeprazole)) is 906 ng·h/mL; in data set [1] (fasted) it was 1,760 ng/mL*h; in data set [1] (fed (high-fat food)) it was 2,070 ng/mL*h; in data set [1] (fed with PPI (rabeprazole)), 1,180 ng/mL*h. For the same molecule, the “pKa (first value)” value in data set [2] was 4.2. Also, the “dose proportionality of PK” value in data set [3] is listed as “dose‐proportionality”.
